Measured values reported in article PMC8168342 (Chemical biology & drug design, 2021).

Biological target: T1, androgen receptor (AR) (Homo sapiens, UniProt P10275)
T1 sequence (P10275 1-920): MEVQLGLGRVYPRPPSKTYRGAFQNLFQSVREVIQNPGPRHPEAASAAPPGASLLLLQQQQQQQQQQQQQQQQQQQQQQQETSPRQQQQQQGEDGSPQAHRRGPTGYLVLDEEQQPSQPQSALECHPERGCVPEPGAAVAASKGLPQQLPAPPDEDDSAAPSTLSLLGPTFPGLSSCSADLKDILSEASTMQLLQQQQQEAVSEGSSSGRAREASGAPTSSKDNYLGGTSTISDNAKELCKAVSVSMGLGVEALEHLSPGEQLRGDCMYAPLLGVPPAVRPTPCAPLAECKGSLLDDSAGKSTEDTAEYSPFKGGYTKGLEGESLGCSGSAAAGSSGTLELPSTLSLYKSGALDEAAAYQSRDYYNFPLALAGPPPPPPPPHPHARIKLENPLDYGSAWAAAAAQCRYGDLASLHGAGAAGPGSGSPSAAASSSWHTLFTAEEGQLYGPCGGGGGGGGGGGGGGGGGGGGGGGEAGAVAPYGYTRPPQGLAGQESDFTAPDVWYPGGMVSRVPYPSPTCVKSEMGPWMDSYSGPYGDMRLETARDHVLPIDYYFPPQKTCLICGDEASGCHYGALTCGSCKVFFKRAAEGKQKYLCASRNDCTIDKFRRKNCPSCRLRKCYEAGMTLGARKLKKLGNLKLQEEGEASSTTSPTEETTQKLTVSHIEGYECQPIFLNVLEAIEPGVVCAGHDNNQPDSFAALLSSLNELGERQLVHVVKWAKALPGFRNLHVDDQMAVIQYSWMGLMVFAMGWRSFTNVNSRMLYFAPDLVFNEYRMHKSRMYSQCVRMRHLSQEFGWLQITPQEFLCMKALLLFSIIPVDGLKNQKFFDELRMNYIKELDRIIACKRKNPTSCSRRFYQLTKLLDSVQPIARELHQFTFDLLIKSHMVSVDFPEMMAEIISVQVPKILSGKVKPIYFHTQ
Assay: ARE luciferase reporter assay in MDA-kb2 cells, antagonism of […] DHT
Assay type: cell-based

| SMILES | % inhibition at 1 μM |
| --- | --- |
| CC1(C)C(=O)N(c2ccc(C#N)c(C(F)(F)F)c2)C(=S)N1c1ccc(CCCCCCO)nc1 [10b, 4-(3-(6-(6-Hydroxyhexyl)pyridin-3-yl)-4,4-dimethyl-5-oxo-2-thioxoimidazolidin-1-yl)-2-(trifluoromethyl) benzonitrile] | 60 |
| CC1(C)C(=O)N(c2ccc(C#N)c(C(F)(F)F)c2)C(=S)N1c1ccc(CCCCCCN=[N+]=[N-])nc1 [11b, 4-(3-(6-(6-Azidohexyl)pyridin-3-yl)-4,4-dimethyl-5-oxo-2-thioxoimidazolidin-1-yl)-2-(trifluoromethyl) benzonitrile] | 60 |
